This note sets out measurements from US5300672A (priority 1992, dated 1994).

The test system of one test is Phytophthora infestans. Description: whole plant or invertebrate. The class given is in vivo. The settings on record: for pest or weed control at 100 ppm / pest or weed control at 6 ppm / pest or weed control at 200 ppm: Phytophthora infestans, in Solanum lycopersicum, 96 h; for pest or weed control at 200 ppm: read-out: % Control TLB, application rate 200 ppm.
The test system of test [1] is Puccinia recondita (f. sp. tritici Races PKB and PLD). Description: whole plant or invertebrate. The class given is in vivo. The settings on record: for pest or weed control at 100 ppm / pest or weed control at 200 ppm: Puccinia recondita, 240 h, read-out: % Control WLR.
Test [2] has as its system Erysiphe graminis (f. sp. tritici). The test is described as follows: whole plant or invertebrate. The test is classed as in vivo. The settings on record: for pest or weed control at 100 ppm / pest or weed control at 200 ppm: Blumeria graminis, read-out: % Control WPM.
In test [3] the test system is Pellicularia filamentosa (f. sp. sasiki). Description: whole plant or invertebrate. The settings on record: for pest or weed control at 100 ppm / pest or weed control at 200 ppm: 120 h, read-out: % Control RSB. The test is classed as in vivo.
The next test relates to Piricularia oryzae. The test is described as follows: whole plant or invertebrate. The class given is in vivo. The settings on record: for pest or weed control at 100 ppm: read-out: % Control RB, application rate 100 ppm.
The subject of the next test is Pseudomonas fluorescens. Description: Alternate Minimum Inhibitory Concentrations Test (Table 4), Ps.fl. The test is classed as cell-based. The settings on record: Table 4 alternate test, 250 ppm to 0.8 ppm in TSB, 72 hours, 30° C.; for MIC: Pseudomonas fluorescens, read-out: MIC Ps.fl. The procedure:
The compounds of Examples 1-8, 12-26, 28-33, 36-37, 39-42, 44-109, 111-114, and 116-120 were subjected also to the following alternate biocidal activity test procedures with the results as indicated in Table 4.
The MIC test measures the viability of Pseudomonas fluorescens inoculum in TSB when exposed for 72 hours to varying concentrations of test compound.
A 125 μl aliquot of 10,000 ppm test compound in acetone was added to 4.88 ml of TSB to provide a 250 ppm solution. From this solution, 100 μL was transferred to the first row of two microtiter plate columns. Both replicates and five additional compounds were all serially diluted 1:1 to a final concentration of 0.8 ppm in TSB.
Inoculation was accomplished by diluting a 24 hr Ps fl culture, four mls per 36 mls of phosphate buffer solution. A Dynatech autoinoculator was used to transfer 1.5 μl of this cell suspension to the microtiter plates. The plates were incubated at 30° C. for 3 days before the lowest concentration at which no growth occurs was recorded in the database.

[4] abbreviates: read-out: % Control TLB, application rate 100 ppm.
Where [5] appears, read: Pyricularia oryzae, read-out: % Control RB, application rate 25 ppm.

Each structure is given as a SMILES string. Where two headings read alike, the source gives them in different places.

For orientation: MIC means the lowest concentration found to suppress growth. In the case of `CCCCCCCCNC(=O)/C=C\SC(=O)c1ccccc1` [Compound 1, N-octyl-cis-3-(benzoylthio)acrylamide], the pest or weed control at 100 ppm in the test with Phytophthora infestans (setting [4]) came out at 100%; in test [1] it was 0%; in test [2], 0%; in test [3], 0%; in the test with Piricularia oryzae (Pyricularia oryzae) it was 0%. The MIC in the test with Pseudomonas fluorescens was > 250 µg/mL.
On to `CCCCCCCCNC(=O)/C=C\SC(=O)CC(=O)OCC` [Compound 2, N-octyl-cis-3-(ethylmalonylthio)acrylamide], for which the pest or weed control at 100 ppm in the test on Phytophthora infestans (read-out: % Control TLB) was found to be 90%; in test [1], 0%; in test [2] it was 0%; in test [3] it was 0%. For the same compound, the pest or weed control at 6 ppm in the test with Piricularia oryzae (Pyricularia oryzae, read-out: % Control RB, application rate 6 ppm) turned out to be 50%. Also, the MIC in the test with Pseudomonas fluorescens is > 250 µg/mL.
`CCCCCCCCNC(=O)/C=C\SC(=O)c1cccc(OC)c1` [Compound 8, N-octyl-cis-3-[(3-methoxybenzoyl)thio]acrylamide]: the pest or weed control at 100 ppm was 80% in the test on Phytophthora infestans (read-out: % Control TLB); 0% in test [1]; 0% in test [2]; 0% in test [3]; 80% with Piricularia oryzae (Pyricularia oryzae). Also, in the test with Pseudomonas fluorescens, the MIC was > 250 µg/mL.
Regarding `CCCCCCCCNC(=O)/C=C\SC/C=C/c1ccccc1` [Compound 13, N-octyl-cis-3-[(trans-3-phenylprop-2-ene)thio]acrylamide], the pest or weed control at 100 ppm with Phytophthora infestans (read-out: % Control TLB) was found to be 80%; in test [1], 0%; in test [2], 0%; in test [3], 0%; in the test with Piricularia oryzae (Pyricularia oryzae), 0%. The MIC in the test with Pseudomonas fluorescens is > 250 µg/mL.
For the compound `CCCCCCCCNC(=O)/C=C\SC(=O)c1cc2ccccc2s1` [Compound 19, N-octyl-cis-3-[(2-benzo(6)thiophene)carbonylthio]acrylamide], the pest or weed control at 100 ppm turned out to be 90% in the test on Phytophthora infestans (read-out: % Control TLB); 0% in test [1]; 0% in test [2]; 0% in test [3]; 0% in the test on Piricularia oryzae (Pyricularia oryzae). For the same compound, the MIC in the test on Pseudomonas fluorescens is > 250 µg/mL.
Regarding `CCCCCCCCNC(=O)/C=C\SC(=O)c1c(Cl)cccc1Cl` [Compound 21, N-octyl-cis-3-[(2,6-dichlorobenzoyl)thio]acrylamide], the pest or weed control at 100 ppm in the test with Phytophthora infestans (read-out: % Control TLB) turned out to be 80%; in test [1], 0%; in test [2] it was 0%; in test [3], 0%; in the test with Piricularia oryzae (Pyricularia oryzae), 0%. In addition, the MIC in the test on Pseudomonas fluorescens was > 250 µg/mL.
`CCCCCCCCNC(=O)/C=C\SC(=O)CCCCCCC` [Compound 23, N-octyl-cis-3-(octanoylthio)acrylamide]: the pest or weed control at 100 ppm in the test with Phytophthora infestans (setting [4]) is 0%; in test [1] it was 0%; in test [2] it was 0%; in test [3], 80%; with Piricularia oryzae (Pyricularia oryzae) it was 0%. In the test with Pseudomonas fluorescens, the MIC is > 250 µg/mL.
Take `CCCCCCCCNC(=O)/C=C\SC(=O)C(CC)CCCC` (stereo not drawn) [Compound 27, N-octyl-cis-3-[(2-ethylhexanoyl)thio]acrylamide]: the pest or weed control at 100 ppm in the test with Phytophthora infestans (read-out: % Control TLB) is 90%; in test [1] it was 0%; in test [2], 0%; in test [3] it was 0%; in the test with Piricularia oryzae (Pyricularia oryzae), 0%.
Turning to `CCCCCCCCNC(=O)/C=C\SC(=O)c1c(F)cc(F)cc1F` [Compound 28, N-octyl-cis-3-[(2,4,6-trifluorobenzoyl)thio]acrylamide], the pest or weed control at 100 ppm was determined as 0% with Phytophthora infestans (setting [4]); 0% in test [1]; 0% in test [2]; 0% in test [3]; 90% in the test on Piricularia oryzae (Pyricularia oryzae). Further, the MIC in the test with Pseudomonas fluorescens is > 250 µg/mL.
For `CCCCCCCCNC(=O)/C=C\SC(=O)CCl` [Compound 31, N-octyl-cis-3-(chloroacetylthio)acrylamide], the pest or weed control at 100 ppm in the test on Phytophthora infestans (read-out: % Control TLB) is 80%; in test [1], 0%; in test [2], 0%; in test [3] it was 0%; with Piricularia oryzae (Pyricularia oryzae), 0%. Also, the MIC in the test on Pseudomonas fluorescens was > 250 µg/mL.
Consider `CCCCCCCCNC(=O)/C=C\SC(=O)N1CCCC1` [Compound 32, N-octyl-cis-3-[(1-pyrrolidine)carbonylthio]acrylamide], for which the pest or weed control at 100 ppm in the test on Phytophthora infestans (read-out: % Control TLB) worked out at 80%; in test [1], 0%; in test [2] it was 0%; in test [3] it was 0%; with Piricularia oryzae (Pyricularia oryzae), 0%. Besides, the MIC in the test with Pseudomonas fluorescens was > 250 µg/mL.
With `CCCCCCCCNC(=O)/C=C\SCC(=O)OCC` [Compound 34, N-octyl-cis-3-(ethoxycarbonylmethanethio)acrylamide], the pest or weed control at 100 ppm in the test on Phytophthora infestans (read-out: % Control TLB) was 80%; in test [1], 0%; in test [2], 0%; in test [3] it was 90%; in the test with Piricularia oryzae (Pyricularia oryzae) it was 0%.
Turning to `CCCCCCCCNC(=O)/C=C\SC(=O)c1ccccc1CCl` [Compound 35, N-octyl-cis-3-[(2-(chloromethyl)benzoyl)thio]acrylamide], the pest or weed control at 100 ppm in the test on Phytophthora infestans (setting [4]) came to 0%; in test [1], 0%; in test [2] it was 85%; in test [3] it was 0%; with Piricularia oryzae (Pyricularia oryzae) it was 80%.
For the compound `CCCCCCCCNC(=O)/C=C\SC(=O)c1cccc(Br)c1` [Compound 36, N-octyl-cis-3-[(3-bromobenzoyl)thio]acrylamide], the pest or weed control at 100 ppm (with Phytophthora infestans (setting [4]); in test [1]; in test [2]; in test [3]) was 0% throughout. Also, in the test with Piricularia oryzae (Pyricularia oryzae, read-out: % Control RB), the pest or weed control at 25 ppm was 90%. For the same compound, in the test with Pseudomonas fluorescens, the MIC is > 250 µg/mL.
Consider `CCCCCCCCNC(=O)/C=C\SC(=O)C(Cl)Cl` [Compound 37, N-octyl-cis-3-(dichloroacetylthio)acrylamide], for which the pest or weed control at 6 ppm in the test with Phytophthora infestans (read-out: % Control TLB) came to 90%. Moreover, the pest or weed control at 100 ppm in test [1], in test [2] and in test [3] was 0% throughout. Moreover, in the test with Piricularia oryzae (setting [5]), the pest or weed control at 25 ppm was determined as 80%. Moreover, the MIC in the test on Pseudomonas fluorescens is > 250 µg/mL.
`CCCCCCCCNC(=O)/C=C\SC(C)C(=O)OC` (stereo not drawn) [Compound 38]: the pest or weed control at 6 ppm in the test on Phytophthora infestans (read-out: % Control TLB) is 80%. The pest or weed control at 100 ppm in test [1], in test [2] and in test [3] was 0% throughout. Besides, the pest or weed control at 25 ppm with Piricularia oryzae (setting [5]) was 80%.
`CCCCCCCCNC(=O)C=CSC(CO)COc1ccc(OC)cc1` (stereo not drawn) [Compound 39, N-octyl-cis-3-[(1-hydroxy-3-(4-methoxyphenoxy)-2-propane)thio]acrylamide]: the “% Control TLB” value in the test on Phytophthora infestans (application rate 100 ppm) is given as 0 % Control. Besides, the “% Control WLR” value in test [1] (in vivo) is recorded as 0 % Control. Moreover, the “% Control WPM” value in test [2] (in vivo) worked out at 0 % Control. Besides, the “% Control RSB” value in test [3] (in vivo) amounted to 0 % Control. Moreover, the “% Control RB” value in the test with Piricularia oryzae (in vivo) was 80 % Control. Moreover, in the test with Pseudomonas fluorescens, the “MIC Ps.fl” value is given as > 250 Ppm.
Regarding `CCCCCCCCNC(=O)/C=C\SC(=O)c1cc(Cl)cc(Cl)c1` [Compound 54, N-octyl-cis-3-[(3,5-dichlorobenzoyl)thio]acrylamide], the pest or weed control at 100 ppm in the test with Phytophthora infestans (read-out: % Control TLB) turned out to be 85%; in test [1], 0%; in test [2], 0%; in test [3], 0%. In the test on Pseudomonas fluorescens, the MIC is > 250 µg/mL.
With `CCCCCCCCNC(=O)/C=C\SC(=O)CCCCCCCCCCC#N` [Compound 58, N-octyl-cis-3-[(11-cyanoundecanoyl)thio]acrylamide], the pest or weed control at 200 ppm in the test with Phytophthora infestans is 0%; in test [1], 0%; in test [2] it was 0%; in test [3], 50%. In addition, the MIC with Pseudomonas fluorescens is > 250 µg/mL.
As for `CCCCCCCCNC(=O)/C=C\SC(=O)COCC` [Compound 60, N-octyl-cis-3-(ethoxyacetylthio)acrylamide], the pest or weed control at 200 ppm in the test with Phytophthora infestans was 95%; in test [1], 25%; in test [2] it was 0%; in test [3], 0%; in the test with Piricularia oryzae (Pyricularia oryzae, read-out: % Control RB, application rate 200 ppm), 50%. Besides, the MIC in the test with Pseudomonas fluorescens was > 250 µg/mL.
